Laboratory results published in ChEMBL document CHEMBL4138123, “Design, synthesis and biological evaluation of novel pyrazolochalcones as potential modulators of PI3K/Akt/mTOR pathway and inducers of apoptosis in breast cancer cells” (Eur J Med Chem, 2017).

Key:
Type in all cases: functional
ACHN = assay: Cytotoxicity against human ACHN cells assessed as cell growth at 0.01 uM after 48 hrs by sulforhodamine B assay relative to control; settings: read-out: Activity
RXF 393 [1] = assay: Cytotoxicity against human RXF393 cells assessed as cell growth at 1 uM after 48 hrs by sulforhodamine B assay relative to control; settings: RXF 393, 48 h, read-out: Activity
MCF7 [2] = assay: Cytotoxicity against human MCF7 cells assessed as cell growth at 10 uM after 48 hrs by sulforhodamine B assay relative to control; settings: MCF7, 48 h, read-out: Activity
SF-268 = assay: Cytotoxicity against human SF268 cells assessed as cell growth at 1 uM after 48 hrs by sulforhodamine B assay relative to control; settings: SF-268, 48 h, read-out: Activity
BT-549 [3] = assay: Cytotoxicity against human BT549 cells assessed as cell growth at 100 uM after 48 hrs by sulforhodamine B assay relative to control; settings: BT-549, 48 h, read-out: Activity
Hs-578T [4] = assay: Cytotoxicity against human Hs 578T cells assessed as growth inhibition after 48 hrs by sulforhodamine B assay
LOX IMVI = assay: Cytotoxicity against human LOXIMVI cells assessed as growth inhibition after 48 hrs by sulforhodamine B assay
HCT-116 = assay: Cytotoxicity against human HCT116 cells assessed as cell growth at 0.1 uM after 48 hrs by sulforhodamine B assay relative to control; settings: HCT-116, 48 h, read-out: Activity
NCI-H322M = assay: Cytotoxicity against human NCI-H322M cells assessed as cell growth at 10 uM after 48 hrs by sulforhodamine B assay relative to control; settings: read-out: Activity
UACC-257 [5] = assay: Cytotoxicity against human UACC257 cells assessed as growth inhibition after 48 hrs by sulforhodamine B assay; settings: UACC-257, 48 h
RXF 393 [6] = assay: Cytotoxicity against human RXF393 cells assessed as growth inhibition after 48 hrs by sulforhodamine B assay; settings: RXF 393, 48 h
MDA-MB-435 [7] = assay: Cytotoxicity against human MDA-MB-435 cells assessed as cell growth at 10 uM after 48 hrs by sulforhodamine B assay relative to control; settings: MDA-MB-435, 48 h, read-out: Activity
Hs-578T [8] = assay: Cytotoxicity against human Hs 578T cells assessed as cell growth at 0.1 uM after 48 hrs by sulforhodamine B assay relative to control; settings: read-out: Activity
SW-620 = assay: Cytotoxicity against human SW620 cells assessed as cell growth at 0.1 uM after 48 hrs by sulforhodamine B assay relative to control; settings: SW-620, 48 h, read-out: Activity
U-251 [9] = assay: Cytotoxicity against human U251 cells assessed as cell growth at 0.1 uM after 48 hrs by sulforhodamine B assay relative to control; settings: U-251, 48 h, read-out: Activity
U-251 [10] = assay: Cytotoxicity against human U251 cells assessed as growth inhibition after 48 hrs by sulforhodamine B assay; settings: U-251, 48 h
MCF7 [11] = assay: Cytotoxicity against human MCF7 cells assessed as cell growth at 0.1 uM after 48 hrs by sulforhodamine B assay relative to control; settings: MCF7, 48 h, read-out: Activity
HL-60(TB) = assay: Cytotoxicity against human HL-60(TB) cells assessed as cell growth at 0.1 uM after 48 hrs by sulforhodamine B assay relative to control; settings: HL-60, 48 h, read-out: Activity
PC-3 [12] = assay: Cytotoxicity against human PC3 cells assessed as cell growth at 1 uM after 48 hrs by sulforhodamine B assay relative to control; settings: PC-3, 48 h, read-out: Activity
OVCAR-4 [13] = assay: Cytotoxicity against human OVCAR4 cells assessed as cell growth at 100 uM after 48 hrs by sulforhodamine B assay relative to control; settings: OVCAR-4, 48 h, read-out: Activity
T47D = assay: Cytotoxicity against human T47D cells assessed as cell growth at 10 uM after 48 hrs by sulforhodamine B assay relative to control; settings: read-out: Activity
UACC-257 [14] = assay: Cytotoxicity against human UACC257 cells assessed as cell growth at 0.01 uM after 48 hrs by sulforhodamine B assay relative to control; settings: UACC-257, 48 h, read-out: Activity
OVCAR-3 = assay: Cytotoxicity against human OVCAR3 cells assessed as cell growth at 0.01 uM after 48 hrs by sulforhodamine B assay relative to control; settings: OVCAR-3, 48 h, read-out: Activity
786-0 = assay: Cytotoxicity against human 786-0 cells assessed as cell growth at 0.1 uM after 48 hrs by sulforhodamine B assay relative to control; settings: 786-0, 48 h, read-out: Activity
OVCAR-4 [15] = assay: Cytotoxicity against human OVCAR4 cells assessed as growth inhibition after 48 hrs by sulforhodamine B assay; settings: OVCAR-4, 48 h
SNB-19 = assay: Cytotoxicity against human SNB19 cells assessed as growth inhibition after 48 hrs by sulforhodamine B assay; settings: SNB-19, 48 h; for CC50: read-out: LC50 (the source's name)
DU-145 = assay: Cytotoxicity against human DU145 cells assessed as growth inhibition after 48 hrs by sulforhodamine B assay; settings: DU-145, 48 h; for CC50: read-out: LC50 (the source's name)
UACC-257 [16] = assay: Cytotoxicity against human UACC257 cells assessed as cell growth at 0.1 uM after 48 hrs by sulforhodamine B assay relative to control; settings: UACC-257, 48 h, read-out: Activity
UACC-62 [17] = assay: Cytotoxicity against human UACC62 cells assessed as cell growth at 0.1 uM after 48 hrs by sulforhodamine B assay relative to control; settings: UACC-62, 48 h, read-out: Activity
NCI-H522 [18] = assay: Cytotoxicity against human NCI-H522 cells assessed as cell growth at 0.01 uM after 48 hrs by sulforhodamine B assay relative to control; settings: NCI-H522, 48 h, read-out: Activity
PC-3 [19] = assay: Cytotoxicity against human PC3 cells assessed as cell growth at 100 uM after 48 hrs by sulforhodamine B assay relative to control; settings: PC-3, 48 h, read-out: Activity
UACC-62 [20] = assay: Cytotoxicity against human UACC62 cells assessed as cell growth at 100 uM after 48 hrs by sulforhodamine B assay relative to control; settings: UACC-62, 48 h, read-out: Activity
Malme-3M = assay: Cytotoxicity against human MALME-3M cells assessed as cell growth at 0.1 uM after 48 hrs by sulforhodamine B assay relative to control; settings: read-out: Activity
MDA-MB-435 [21] = assay: Cytotoxicity against human MDA-MB-435 cells assessed as cell growth at 100 uM after 48 hrs by sulforhodamine B assay relative to control; settings: MDA-MB-435, 48 h, read-out: Activity
NCI-H522 [22] = assay: Cytotoxicity against human NCI-H522 cells assessed as cell growth at 10 uM after 48 hrs by sulforhodamine B assay relative to control; settings: NCI-H522, 48 h, read-out: Activity
BT-549 [23] = assay: Cytotoxicity against human BT549 cells assessed as growth inhibition after 48 hrs by sulforhodamine B assay; settings: BT-549, 48 h

COc1cc(-c2cc(/C=C/C(=O)c3ccc(N)cc3)[nH]n2)cc(OC)c1OC showed a growth at 0.01 µM (ACHN) of 95%, a growth at 1 µM (RXF 393 [1]) of 67% and a growth at 10 µM (MCF7 [2]) of -24%. The growth at 1 µM (SF-268) was 81%, the growth at 100 µM (BT-549 [3]) was -97% and the GI50 (Hs-578T [4]) was 4.33 µM. The LC50 (Hs-578T [4]) was over 100 µM, the TGI (Hs-578T [4]) was over 100 µM and the GI50 (LOX IMVI) was 1.06 µM. It also gave an LC50 (LOX IMVI) of 6.72 µM, a TGI (LOX IMVI) of 3.28 µM and a growth at 0.1 µM (HCT-116) of 97%. For the same molecule, the growth at 10 µM (NCI-H322M) was -32%, the GI50 (UACC-257 [5]) was 1.87 µM and the LC50 (UACC-257 [5]) was 8.66 µM. It also gave a TGI (UACC-257 [5]) of 4.02 µM, a GI50 (RXF 393 [6]) of 1.35 µM and an LC50 (concentration killing 50% of cells) (RXF 393 [6]) of 7.79 µM. For the same molecule, the TGI (RXF 393 [6]) was 3.24 µM, the growth at 10 µM (MDA-MB-435 [7]) was -86% and the growth at 0.1 µM (Hs-578T [8]) was 88%. For the same molecule, the growth at 0.1 µM (SW-620) was 95%, the growth at 0.1 µM (U-251 [9]) was 94% and the GI50 (U-251 [10]) was 1.42 µM. The LC50 (U-251 [10]) was 5.39 µM, the TGI (U-251 [10]) was 2.77 µM and the growth at 0.1 µM (MCF7 [11]) was 91%. The growth at 0.1 µM (HL-60(TB)) was 99%, the growth at 1 µM (PC-3 [12]) was 76% and the growth at 100 µM (OVCAR-4 [13]) was -96%. The growth at 10 µM (T47D) was -38%, the growth at 0.01 µM (UACC-257 [14]) was 94% and the growth at 0.01 µM (OVCAR-3) was 101%. For the same molecule, the growth at 0.1 µM (786-0) was 94%, the GI50 (OVCAR-4 [15]) was 1.4 µM and the LC50 (OVCAR-4 [15]) was 23.7 µM. For the same molecule, the TGI (OVCAR-4 [15]) was 5.44 µM, the GI50 (SNB-19) was 2.34 µM and the TGI (SNB-19) was 9.98 µM. It also gave a CC50 (SNB-19) of 34 µM, a GI50 (DU-145) of 1.65 µM and a TGI (DU-145) of 4.05 µM. For the same molecule, the CC50 (DU-145) was 9.95 µM, the growth at 0.1 µM (UACC-257 [16]) was 93% and the growth at 0.1 µM (UACC-62 [17]) was 99%. For the same molecule, the growth at 0.01 µM (NCI-H522 [18]) was 92%, the growth at 100 µM (PC-3 [19]) was -39% and the growth at 100 µM (UACC-62 [20]) was -92%. For the same molecule, the growth at 0.1 µM (Malme-3M) was 102%, the growth at 100 µM (MDA-MB-435 [21]) was -85% and the growth at 10 µM (NCI-H522 [22]) was -51%. For the same molecule, the GI50 (BT-549 [23]) was 1.38 µM, the LC50 (concentration killing 50% of cells) (BT-549 [23]) was 5.76 µM and the TGI (BT-549 [23]) was 2.82 µM.

In the case of COc1ccc(C(=O)/C=C/c2cc(-c3ccc(OC)c(OC)c3)n[nH]2)cc1OC, the growth at 0.01 µM (ACHN) is reported as 93%, the growth at 1 µM (RXF 393 [1]) is reported as 76% and the growth at 10 µM (MCF7 [2]) is reported as -5%. The growth at 1 µM (SF-268) was 74%, the growth at 100 µM (BT-549 [3]) was -89% and the GI50 (Hs-578T [4]) was 3.76 µM. The TGI (Hs-578T [4]) was over 100 µM, the GI50 (LOX IMVI) was 1.29 µM and the TGI (LOX IMVI) was 2.7 µM. For the same molecule, the growth at 0.1 µM (HCT-116) was 88%, the growth at 10 µM (NCI-H322M) was -9% and the GI50 (UACC-257 [5]) was 2.16 µM. The TGI (UACC-257 [5]) was 5.02 µM, the GI50 (RXF 393 [6]) was 1.45 µM and the TGI (RXF 393 [6]) was 2.98 µM. For the same molecule, the growth at 10 µM (MDA-MB-435 [7]) was -69%, the growth at 0.1 µM (Hs-578T [8]) was 91% and the growth at 0.1 µM (SW-620) was 95%. It also gave a growth at 0.1 µM (U-251 [9]) of 89%, a GI50 (U-251 [10]) of 1.2 µM and a TGI (U-251 [10]) of 2.63 µM. The growth at 0.1 µM (MCF7 [11]) was 94%, the growth at 0.1 µM (HL-60(TB)) was 101% and the growth at 1 µM (PC-3 [12]) was 69%. It also gave a growth at 100 µM (OVCAR-4 [13]) of -40%, a growth at 10 µM (T47D) of -13% and a growth at 0.01 µM (UACC-257 [14]) of 93%. The growth at 0.01 µM (OVCAR-3) was 107%, the growth at 0.1 µM (786-0) was 96% and the GI50 (OVCAR-4 [15]) was 1.92 µM. For the same molecule, the TGI (OVCAR-4 [15]) was 8.15 µM, the GI50 (SNB-19) was 1.67 µM and the TGI (SNB-19) was 4.16 µM. It also gave a CC50 (SNB-19) of over 100 µM, a GI50 (DU-145) of 1.64 µM and a TGI (DU-145) of 4.8 µM. It also gave a CC50 (DU-145) of 17.4 µM, a growth at 0.1 µM (UACC-257 [16]) of 94% and a growth at 0.1 µM (UACC-62 [17]) of 96%. It also gave a growth at 0.01 µM (NCI-H522 [18]) of 91%, a growth at 100 µM (PC-3 [19]) of -4% and a growth at 100 µM (UACC-62 [20]) of -49%. It also gave a growth at 0.1 µM (Malme-3M) of 106%, a growth at 100 µM (MDA-MB-435 [21]) of 2% and a growth at 10 µM (NCI-H522 [22]) of -56%. The GI50 (BT-549 [23]) was 1.44 µM and the TGI (BT-549 [23]) was 2.92 µM.
